Values of other authors, collected in patent US12496330B2, “Methods of improving spinal fusion with abaloparatide” (Radius Health, Inc., priority 2019, dated 2025).

System: bone resorption and bone formation markers
Conditions: male mice; at 4-fold the current dose

For CC[C@H](C)[C@H](NC(=O)[C@H](CCC(=O)O)NC(=O)[C@H](CO)NC(=O)[C@@H](NC(=O)[C@@H](N)CO)C(C)C)C(=O)N[C@@H](CCC(N)=O)C(=O)N[C@@H](CC(C)C)C(=O)N[C@@H](CCSC)C(=O)N[C@@H](Cc1cnc[nH]1)C(=O)N[C@@H](CC(N)=O)C(=O)N[C@@H](CC(C)C)C(=O)NCC(=O)N[C@@H](CCCCN)C(=O)N[C@@H](Cc1cnc[nH]1)C(=O)N[C@@H](CC(C)C)C(=O)N[C@@H](CC(N)=O)C(=O)N[C@@H](CO)C(=O)N[C@@H](CCSC)C(=O)N[C@@H](CCC(=O)O)C(=O)N[C@@H](CCCN=C(N)N)C(=O)N[C@H](C(=O)N[C@@H](CCC(=O)O)C(=O)N[C@@H](Cc1c[nH]c2ccccc12)C(=O)N[C@@H](CC(C)C)C(=O)N[C@@H](CCCN=C(N)N)C(=O)N[C@@H](CCCCN)C(=O)N[C@@H](CCCCN)C(=O)N[C@@H](CC(C)C)C(=O)N[C@@H](CCC(N)=O)C(=O)N[C@@H](CC(=O)O)C(=O)N[C@H](C(=O)N[C@@H](Cc1cnc[nH]1)C(=O)N[C@@H](CC(N)=O)C(=O)N[C@@H](Cc1ccccc1)C(=O)O)C(C)C)C(C)C [teriparatide], the Bone resorption markers is listed as “increased”.
